Experimental data published in publication PMC10837484 (Clinical and Translational Science, 2024).

How the values were obtained:
[1] = Dog PK/PD study: LYS006 in blood and plasma; format: in vivo, male beagle dogs
[2] = First-in-human study: LYS006 concentrations in plasma and blood; format: in vivo; details: for concentration at 24 h: blood level, 24 h timepoint
[3] = First-in-human study: safety and tolerability; format: in vivo
[4] = cited from earlier work
in vivo = details: male, Wistar, rat, 3 mg/kg
LTA4H = target: T1, LTA4H (Homo sapiens, UniProt P09960); details: highest tested dose 200 mg q.d.; cited from earlier work
T1 sequence (P09960 1-611): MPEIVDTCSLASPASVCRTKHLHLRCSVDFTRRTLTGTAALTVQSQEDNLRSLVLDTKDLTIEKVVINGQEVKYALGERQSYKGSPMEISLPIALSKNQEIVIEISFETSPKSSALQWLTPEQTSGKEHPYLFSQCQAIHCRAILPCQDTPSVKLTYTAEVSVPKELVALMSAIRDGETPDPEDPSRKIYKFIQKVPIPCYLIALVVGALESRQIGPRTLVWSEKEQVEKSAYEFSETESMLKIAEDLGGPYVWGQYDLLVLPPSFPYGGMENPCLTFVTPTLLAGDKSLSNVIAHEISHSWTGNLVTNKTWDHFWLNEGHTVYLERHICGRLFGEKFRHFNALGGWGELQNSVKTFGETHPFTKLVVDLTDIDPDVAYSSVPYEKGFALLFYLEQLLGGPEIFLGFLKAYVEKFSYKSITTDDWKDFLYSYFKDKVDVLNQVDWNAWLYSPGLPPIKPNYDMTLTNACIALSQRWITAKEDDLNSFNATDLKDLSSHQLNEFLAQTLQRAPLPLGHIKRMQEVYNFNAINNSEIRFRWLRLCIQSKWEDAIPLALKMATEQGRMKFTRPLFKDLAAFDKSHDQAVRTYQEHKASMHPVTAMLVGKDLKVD

[5] = cited from earlier work; remark: listed apart in the source
[6] = 0.5 mg/kg p.o. q.d., after fifth dose
[7] = SAD part, LYS006 treated participants

`N[C@@H](CC(=O)O)Cn1nnc(-c2ccc(Oc3ncc(Cl)cc3F)cc2)n1` [LYS006] showed a peak blood concentration [1, 6] of 55 ng/mL, a peak plasma concentration [1, 6] of 5.5 ng/mL and a peak blood level ([1]; 3 mg/kg p.o., first dose, 1 h) of 71 ng/mL. For the same molecule, the peak plasma level ([1]; 3 mg/kg p.o., first dose, 1 h) was 36 ng/mL, the concentration at 24 h ([1]; male, beagle, in vivo, po, 0.5 mg/kg, plasma Ctrough, 0.5 mg/kg p.o., first dose) was roughly 3 ng/mL and the trough blood level ([2]; MAD, 15 mg q.d.) was ~ 35 ng/mL. For the same molecule, the trough plasma level ([2]; MAD, 15 mg q.d.) was ~ 2 ng/mL, the “blood exposure after end-of-treatment” value ([2]; MAD, after last dose on day 12) was 30 to 40 ng/mL and the “plasma level after end-of-treatment” value ([2]; MAD, after last dose on day 12) was 1 to 2 ng/mL. The concentration at 24 h ([2]; both, human, in vivo, 5 mg, SAD) was 29.4 ng/mL, the concentration at 24 h ([2]; both, human, in vivo, 70 mg, SAD) was 37.1 ng/mL and the concentration at 12 h ([2]; both, human, in vivo, blood concentration, SAD, 12 h after administration) was 30 to 50 ng/mL. The “AE severity: Mild” value ([3]; FE cohorts, 10 mg, N = 12) was 8 (66.6) n (%), the “AE severity: Moderate” value ([3]; FE cohorts, 10 mg, N = 12) was 0 (0) n (%) and the “AE severity: Severe” value ([3]; FE cohorts, 10 mg, N = 12) was 0 (0) n (%). The “AEs leading to discontinuation” value ([3]; FE cohorts, 10 mg, N = 12) was 0 (0) n (%), the “Abdominal discomfort or pain” value ([3]; FE cohorts, 10 mg, N = 12) was 2 (16.7) n (%) and the Amylase increase ([3]; FE cohorts, 10 mg, N = 12) was 0 (0) n (%). The Back pain ([3]; FE cohorts, 10 mg, N = 12) was 0 (0) n (%), the “Blood CPK elevation” value ([3]; FE cohorts, 10 mg, N = 12) was 0 (0) n (%) and the Breast pain ([3]; FE cohorts, 10 mg, N = 12) was 0 (0) n (%). For the same molecule, the Deaths ([3]; FE cohorts, 10 mg, N = 12) was 0 (0) n (%), the Diarrhea ([3]; FE cohorts, 10 mg, N = 12) was 0 (0) n (%) and the Dizziness ([3]; FE cohorts, 10 mg, N = 12) was 0 (0) n (%). The Dry skin ([3]; FE cohorts, 10 mg, N = 12) was 2 (16.7) n (%), the Feeling cold ([3]; FE cohorts, 10 mg, N = 12) was 2 (16.7) n (%) and the Headache ([3]; FE cohorts, 10 mg, N = 12) was 1 (8.3) n (%). For the same molecule, the Lipase elevation ([3]; FE cohorts, 10 mg, N = 12) was 0 (0) n (%), the Nausea ([3]; FE cohorts, 10 mg, N = 12) was 0 (0) n (%) and the Pruritus ([3]; FE cohorts, 10 mg, N = 12) was 0 (0) n (%). The SAEs ([3]; FE cohorts, 10 mg, N = 12) was 0 (0) n (%), the “Study drug-related AEs” value ([3]; FE cohorts, 10 mg, N = 12) was 0 (0) n (%) and the Viral respiratory infection ([3]; FE cohorts, 10 mg, N = 12) was 3 (25) n (%). The Feeling cold ([3]; FE part, 10 mg) was 16.7%, the abdominal pain ([3]; FE part, 10 mg) was 16.7% and the dry skin ([3]; FE part, 10 mg) was 16.7%. For the same molecule, the “viral upper respiratory tract infection” value ([3]; FE part, 10 mg) was 25.0%, the “participants with at least one AE” value ([3]; FE part, 10 mg fasted or fed, 12 patients) was 66.7% and the “AE severity: Mild” value ([3]; MAD cohorts, all doses, N = 30) was 22 (73.3) n (%). The “AE severity: Moderate” value ([3]; MAD cohorts, all doses, N = 30) was 4 (13.3) n (%), the “AE severity: Severe” value ([3]; MAD cohorts, all doses, N = 30) was 4 (13.3) n (%) and the “AEs leading to discontinuation” value ([3]; MAD cohorts, all doses, N = 30) was 0 (0) n (%). For the same molecule, the “Abdominal discomfort or pain” value ([3]; MAD cohorts, all doses, N = 30) was 2 (6.7) n (%), the Amylase increase ([3]; MAD cohorts, all doses, N = 30) was 2 (6.7) n (%) and the Back pain ([3]; MAD cohorts, all doses, N = 30) was 2 (6.7) n (%). The “Blood CPK elevation” value ([3]; MAD cohorts, all doses, N = 30) was 5 (16.7) n (%), the Breast pain ([3]; MAD cohorts, all doses, N = 30) was 0 (0) n (%) and the Deaths ([3]; MAD cohorts, all doses, N = 30) was 0 (0) n (%). For the same molecule, the Diarrhea ([3]; MAD cohorts, all doses, N = 30) was 1 (3.3) n (%), the Dizziness ([3]; MAD cohorts, all doses, N = 30) was 2 (6.7) n (%) and the Dry skin ([3]; MAD cohorts, all doses, N = 30) was 0 (0) n (%). The Feeling cold ([3]; MAD cohorts, all doses, N = 30) was 0 (0) n (%), the Headache ([3]; MAD cohorts, all doses, N = 30) was 8 (26.7) n (%) and the Lipase elevation ([3]; MAD cohorts, all doses, N = 30) was 3 (10) n (%). The Nausea ([3]; MAD cohorts, all doses, N = 30) was 2 (6.7) n (%), the Pruritus ([3]; MAD cohorts, all doses, N = 30) was 0 (0) n (%) and the SAEs ([3]; MAD cohorts, all doses, N = 30) was 0 (0) n (%). For the same molecule, the “Study drug-related AEs” value ([3]; MAD cohorts, all doses, N = 30) was 5 (16.7) n (%), the “Subjects with at least one AE” value ([3]; MAD cohorts, all doses, N = 30) was 23 (76.7) n (%) and the Viral respiratory infection ([3]; MAD cohorts, all doses, N = 30) was 2 (6.7) n (%). The “participants with AEs” value ([3]; MAD part, 30 LYS006-treated participants) was 76.7%, the “AEs of severe intensity (grade 3)” value ([3]; MAD part, LYS006-treated participants) was 13.3% and the Headache ([3]; MAD part, LYS006 group) was 26.7%. The Lipase elevation ([3]; MAD part, LYS006 group) was 10%, the “creatine phosphokinase (CPK) elevation” value ([3]; MAD part, LYS006 group) was 16.7% and the “number of AEs of severe intensity related to CPK elevations” value ([3]; MAD, LYS006 group, transient) was “two”. The “number of lipase elevations of severe intensity (grade 3)” value ([3]; MAD, LYS006 group, transient) was “Two”, the “AE severity: Mild” value ([3]; SAD cohorts, all doses, N = 51) was 18 (35.3) n (%) and the “AE severity: Moderate” value ([3]; SAD cohorts, all doses, N = 51) was 2 (3.9) n (%). For the same molecule, the “AE severity: Severe” value ([3]; SAD cohorts, all doses, N = 51) was 1 (2) n (%), the “AEs leading to discontinuation” value ([3]; SAD cohorts, all doses, N = 51) was 0 (0) n (%) and the “Abdominal discomfort or pain” value ([3]; SAD cohorts, all doses, N = 51) was 4 (7.8) n (%). For the same molecule, the Amylase increase ([3]; SAD cohorts, all doses, N = 51) was 0 (0) n (%), the Back pain ([3]; SAD cohorts, all doses, N = 51) was 1 (2) n (%) and the “Blood CPK elevation” value ([3]; SAD cohorts, all doses, N = 51) was 0 (0) n (%). The Breast pain ([3]; SAD cohorts, all doses, N = 51) was 0 (0) n (%), the Deaths ([3]; SAD cohorts, all doses, N = 51) was 0 (0) n (%) and the Diarrhea ([3]; SAD cohorts, all doses, N = 51) was 2 (3.9) n (%). The Dizziness ([3]; SAD cohorts, all doses, N = 51) was 1 (2) n (%), the Dry skin ([3]; SAD cohorts, all doses, N = 51) was 0 (0) n (%) and the Feeling cold ([3]; SAD cohorts, all doses, N = 51) was 0 (0) n (%). The Headache ([3]; SAD cohorts, all doses, N = 51) was 3 (5.9) n (%), the Lipase elevation ([3]; SAD cohorts, all doses, N = 51) was 2 (3.9) n (%) and the Nausea ([3]; SAD cohorts, all doses, N = 51) was 0 (0) n (%). For the same molecule, the Pruritus ([3]; SAD cohorts, all doses, N = 51) was 2 (3.9) n (%), the SAEs ([3]; SAD cohorts, all doses, N = 51) was 0 (0) n (%) and the “Study drug-related AEs” value ([3]; SAD cohorts, all doses, N = 51) was 4 (7.8) n (%). For the same molecule, the “Subjects with at least one AE” value ([3]; SAD cohorts, all doses, N = 51) was 19 (37.3) n (%), the Viral respiratory infection ([3]; SAD cohorts, all doses, N = 51) was 0 (0) n (%) and the “participants with AEs” value ([3]; SAD part, 51 LYS006 treated participants) was 37.3%. The “Abdominal discomfort or pain” value [3, 7] was 7.8%, the Diarrhea [3, 7] was 3.9% and the Headache [3, 7] was 5.9%. The tolerability ([3]; SAD, FE and MAD parts, all study participants) was “well‐tolerated”, the dose-limiting toxicity ([3]; healthy participants, up to 80 mg b.i.d.) was “No dose‐limiting toxicity” and the “lipase increase, only AE of severe intensity (grade 3) in SAD” value ([3]; one participant, single dose 5 mg, day 8 after dosing, no clinical sign) was no less than 2 × ULN. For the same molecule, the “time to maximum plasma concentration (Tmax)” value ([4]; clinical PK) was 1 to 2 h, the “parent compound excreted into the urine” value ([4]; human) was 90% and the concentration at 4 h (in vivo) was greater than 1000 ng/mL.

For `O=C(O)c1ccc(CN2C[C@@H]3C[C@H]2CN3Cc2ccc(Oc3ccc(-c4ncco4)cc3)cc2)cc1` [acebilustat], the “maximum PD effect, reduction of LTB4 at peak in ex vivo stimulated blood” value (LTA4H) is listed as 89%.

In the case of `CC(c1cc2ccccc2s1)N(O)C(N)=O` (centres unmarked) [zileuton], the “effect on liver transaminases” value [5] is given as “elevates liver transaminases”.
